Measured values: ChEMBL document CHEMBL1137005 (Bioorg Med Chem Lett, 2009)

Columns and labels:
[1] = target: Sodium channel protein type 5 subunit alpha (Homo sapiens, UniProt Q14524); assay: Inhibition of Voltage-gated sodium channel subunit alpha Nav1.5
[2] = target: T1, Bifunctional epoxide hydrolase 2 (Homo sapiens, UniProt P34913); assay: Inhibition of human soluble epoxide hydrolase in HEK293 cells assessed as DHET production; format: cell-based
T1 sequence (P34913 whole entry): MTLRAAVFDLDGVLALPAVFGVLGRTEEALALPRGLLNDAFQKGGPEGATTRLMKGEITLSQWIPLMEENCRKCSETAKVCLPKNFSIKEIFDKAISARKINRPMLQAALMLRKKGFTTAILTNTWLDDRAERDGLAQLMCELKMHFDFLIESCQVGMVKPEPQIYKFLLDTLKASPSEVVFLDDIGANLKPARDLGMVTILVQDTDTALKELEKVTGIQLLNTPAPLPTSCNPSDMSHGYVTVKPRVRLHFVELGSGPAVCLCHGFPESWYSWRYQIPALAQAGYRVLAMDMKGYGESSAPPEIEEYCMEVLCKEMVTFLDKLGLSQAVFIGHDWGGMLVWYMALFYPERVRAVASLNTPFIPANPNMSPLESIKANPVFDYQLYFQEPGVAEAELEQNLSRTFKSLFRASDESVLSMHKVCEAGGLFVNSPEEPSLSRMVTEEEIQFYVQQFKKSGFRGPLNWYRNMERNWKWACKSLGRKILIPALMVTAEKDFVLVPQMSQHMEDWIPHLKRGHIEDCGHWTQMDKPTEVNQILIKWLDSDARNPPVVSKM

[3] = target: Voltage-dependent L-type calcium channel subunit alpha-1C (Homo sapiens, UniProt Q13936); assay: Activity at Cav 1.2 channel
[4] = target: T1, Bifunctional epoxide hydrolase 2; assay: Inhibition of human soluble epoxide hydrolase
Cytochrome P450 3A4 = Cytochrome P450 3A4 (Homo sapiens, UniProt P08684); assay: Inhibition of CYP3A4; format: ADME
Epoxide hydrolase 1 = target: T2, Epoxide hydrolase 1 (Homo sapiens, UniProt P07099); assay: Inhibition of human microsomal epoxide hydrolase
T2 sequence (P07099 whole entry): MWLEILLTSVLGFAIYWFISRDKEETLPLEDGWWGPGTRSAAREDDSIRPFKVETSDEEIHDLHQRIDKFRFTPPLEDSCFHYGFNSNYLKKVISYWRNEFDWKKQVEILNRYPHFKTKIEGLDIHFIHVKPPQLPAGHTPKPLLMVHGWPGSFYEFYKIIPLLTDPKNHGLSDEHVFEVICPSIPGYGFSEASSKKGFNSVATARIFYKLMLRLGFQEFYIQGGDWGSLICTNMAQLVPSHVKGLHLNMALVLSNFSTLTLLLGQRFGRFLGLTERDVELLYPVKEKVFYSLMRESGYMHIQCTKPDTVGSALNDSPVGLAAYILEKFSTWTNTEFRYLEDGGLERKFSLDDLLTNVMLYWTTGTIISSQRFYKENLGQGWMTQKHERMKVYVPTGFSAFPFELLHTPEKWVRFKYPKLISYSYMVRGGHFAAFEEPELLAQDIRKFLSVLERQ

[5] = Inhibition of potassium channel IKr
Cytochrome P450 2C9 = Cytochrome P450 2C9 (Homo sapiens, UniProt P11712); assay: Inhibition of CYP2C9; format: ADME
Cytochrome P450 2D6 = Cytochrome P450 2D6 (Homo sapiens, UniProt P10635); assay: Inhibition of CYP2D6; format: ADME
[6] = target: T3, Bifunctional epoxide hydrolase 2 (Rattus norvegicus, UniProt P80299); assay: Inhibition of rat soluble epoxide hydrolase
T3 sequence (P80299 whole entry): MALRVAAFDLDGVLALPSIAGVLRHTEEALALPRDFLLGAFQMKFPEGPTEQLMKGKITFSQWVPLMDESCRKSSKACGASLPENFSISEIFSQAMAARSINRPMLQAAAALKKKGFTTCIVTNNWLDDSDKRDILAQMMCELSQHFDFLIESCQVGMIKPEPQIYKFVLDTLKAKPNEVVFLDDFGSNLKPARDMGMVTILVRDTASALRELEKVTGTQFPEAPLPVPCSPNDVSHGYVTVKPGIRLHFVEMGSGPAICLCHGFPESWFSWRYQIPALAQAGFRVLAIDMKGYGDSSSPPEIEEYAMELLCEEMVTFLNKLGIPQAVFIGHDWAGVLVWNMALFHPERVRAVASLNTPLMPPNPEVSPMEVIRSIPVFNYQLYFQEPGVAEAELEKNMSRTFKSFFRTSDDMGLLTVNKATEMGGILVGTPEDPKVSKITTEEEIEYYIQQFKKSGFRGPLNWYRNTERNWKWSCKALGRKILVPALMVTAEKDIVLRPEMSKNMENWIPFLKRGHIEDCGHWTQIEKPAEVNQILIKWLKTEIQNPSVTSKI

Blood = assay: Inhibition of DHET production in rat whole blood at 1 uM after 1 hr; format: functional; parameters: Activity: scale not given: the % may be the effect or the level left
[7] = Binding affinity to […] channel diltiazem binding site
[8] = Half life in rat at 1 mg/kg, iv and 2 mg/kg, po; format: ADME, organism-based; conditions: in vivo
[9] = Bioavailability in rat at 1 mg/kg, iv and 2 mg/kg, po; format: ADME, organism-based; conditions: in vivo
[10] = Volume of distribution at steady state in rat at 1 mg/kg, iv and 2 mg/kg, po; format: ADME, organism-based; conditions: in vivo, read-out: Vdss
[11] = Clearance in rat at 1 mg/kg, iv and 2 mg/kg, po; format: ADME, organism-based; conditions: in vivo

Sequence of Cytochrome P450 2D6 (P10635 whole entry): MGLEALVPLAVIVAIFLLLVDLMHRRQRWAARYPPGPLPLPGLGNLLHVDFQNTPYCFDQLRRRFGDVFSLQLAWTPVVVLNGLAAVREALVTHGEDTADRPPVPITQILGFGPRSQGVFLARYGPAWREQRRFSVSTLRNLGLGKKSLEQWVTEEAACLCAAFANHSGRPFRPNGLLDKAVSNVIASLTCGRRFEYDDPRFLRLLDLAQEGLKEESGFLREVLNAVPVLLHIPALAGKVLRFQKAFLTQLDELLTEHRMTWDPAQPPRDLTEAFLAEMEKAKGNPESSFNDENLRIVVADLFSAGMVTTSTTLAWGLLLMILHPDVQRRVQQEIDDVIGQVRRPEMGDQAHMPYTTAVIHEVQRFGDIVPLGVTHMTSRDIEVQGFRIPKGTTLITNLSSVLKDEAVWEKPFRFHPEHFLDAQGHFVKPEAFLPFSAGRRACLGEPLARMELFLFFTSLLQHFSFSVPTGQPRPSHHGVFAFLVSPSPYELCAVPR
Sequence of Cytochrome P450 3A4 (P08684 whole entry): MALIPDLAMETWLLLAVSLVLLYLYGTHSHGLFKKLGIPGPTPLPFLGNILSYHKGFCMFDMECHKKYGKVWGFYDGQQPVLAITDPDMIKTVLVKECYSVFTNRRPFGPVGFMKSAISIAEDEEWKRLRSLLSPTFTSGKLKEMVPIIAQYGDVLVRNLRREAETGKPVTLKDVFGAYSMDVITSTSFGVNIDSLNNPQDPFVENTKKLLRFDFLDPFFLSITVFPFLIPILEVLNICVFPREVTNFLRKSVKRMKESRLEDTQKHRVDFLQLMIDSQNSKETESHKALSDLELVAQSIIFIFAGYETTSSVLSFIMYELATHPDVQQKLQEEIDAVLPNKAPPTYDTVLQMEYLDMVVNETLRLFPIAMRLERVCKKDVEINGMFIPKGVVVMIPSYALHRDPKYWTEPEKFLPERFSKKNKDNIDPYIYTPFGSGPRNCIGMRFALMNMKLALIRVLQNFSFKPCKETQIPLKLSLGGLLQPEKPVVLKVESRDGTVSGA
Sequence of Cytochrome P450 2C9 (P11712 whole entry): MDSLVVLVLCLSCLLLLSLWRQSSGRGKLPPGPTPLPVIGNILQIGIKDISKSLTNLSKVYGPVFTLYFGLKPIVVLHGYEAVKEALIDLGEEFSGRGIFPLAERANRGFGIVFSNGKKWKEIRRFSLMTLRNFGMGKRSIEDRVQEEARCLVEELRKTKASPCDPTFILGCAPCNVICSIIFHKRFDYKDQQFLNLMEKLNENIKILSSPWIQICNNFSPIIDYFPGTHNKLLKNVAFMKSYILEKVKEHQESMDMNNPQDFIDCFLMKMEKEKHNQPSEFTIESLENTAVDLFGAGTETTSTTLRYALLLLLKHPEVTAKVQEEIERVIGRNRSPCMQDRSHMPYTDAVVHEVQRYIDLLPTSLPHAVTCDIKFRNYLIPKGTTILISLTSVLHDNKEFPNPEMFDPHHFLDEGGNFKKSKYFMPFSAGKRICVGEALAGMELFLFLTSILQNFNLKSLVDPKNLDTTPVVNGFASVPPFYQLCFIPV
Sequence of Sodium channel protein type 5 subunit alpha (Q14524 whole entry): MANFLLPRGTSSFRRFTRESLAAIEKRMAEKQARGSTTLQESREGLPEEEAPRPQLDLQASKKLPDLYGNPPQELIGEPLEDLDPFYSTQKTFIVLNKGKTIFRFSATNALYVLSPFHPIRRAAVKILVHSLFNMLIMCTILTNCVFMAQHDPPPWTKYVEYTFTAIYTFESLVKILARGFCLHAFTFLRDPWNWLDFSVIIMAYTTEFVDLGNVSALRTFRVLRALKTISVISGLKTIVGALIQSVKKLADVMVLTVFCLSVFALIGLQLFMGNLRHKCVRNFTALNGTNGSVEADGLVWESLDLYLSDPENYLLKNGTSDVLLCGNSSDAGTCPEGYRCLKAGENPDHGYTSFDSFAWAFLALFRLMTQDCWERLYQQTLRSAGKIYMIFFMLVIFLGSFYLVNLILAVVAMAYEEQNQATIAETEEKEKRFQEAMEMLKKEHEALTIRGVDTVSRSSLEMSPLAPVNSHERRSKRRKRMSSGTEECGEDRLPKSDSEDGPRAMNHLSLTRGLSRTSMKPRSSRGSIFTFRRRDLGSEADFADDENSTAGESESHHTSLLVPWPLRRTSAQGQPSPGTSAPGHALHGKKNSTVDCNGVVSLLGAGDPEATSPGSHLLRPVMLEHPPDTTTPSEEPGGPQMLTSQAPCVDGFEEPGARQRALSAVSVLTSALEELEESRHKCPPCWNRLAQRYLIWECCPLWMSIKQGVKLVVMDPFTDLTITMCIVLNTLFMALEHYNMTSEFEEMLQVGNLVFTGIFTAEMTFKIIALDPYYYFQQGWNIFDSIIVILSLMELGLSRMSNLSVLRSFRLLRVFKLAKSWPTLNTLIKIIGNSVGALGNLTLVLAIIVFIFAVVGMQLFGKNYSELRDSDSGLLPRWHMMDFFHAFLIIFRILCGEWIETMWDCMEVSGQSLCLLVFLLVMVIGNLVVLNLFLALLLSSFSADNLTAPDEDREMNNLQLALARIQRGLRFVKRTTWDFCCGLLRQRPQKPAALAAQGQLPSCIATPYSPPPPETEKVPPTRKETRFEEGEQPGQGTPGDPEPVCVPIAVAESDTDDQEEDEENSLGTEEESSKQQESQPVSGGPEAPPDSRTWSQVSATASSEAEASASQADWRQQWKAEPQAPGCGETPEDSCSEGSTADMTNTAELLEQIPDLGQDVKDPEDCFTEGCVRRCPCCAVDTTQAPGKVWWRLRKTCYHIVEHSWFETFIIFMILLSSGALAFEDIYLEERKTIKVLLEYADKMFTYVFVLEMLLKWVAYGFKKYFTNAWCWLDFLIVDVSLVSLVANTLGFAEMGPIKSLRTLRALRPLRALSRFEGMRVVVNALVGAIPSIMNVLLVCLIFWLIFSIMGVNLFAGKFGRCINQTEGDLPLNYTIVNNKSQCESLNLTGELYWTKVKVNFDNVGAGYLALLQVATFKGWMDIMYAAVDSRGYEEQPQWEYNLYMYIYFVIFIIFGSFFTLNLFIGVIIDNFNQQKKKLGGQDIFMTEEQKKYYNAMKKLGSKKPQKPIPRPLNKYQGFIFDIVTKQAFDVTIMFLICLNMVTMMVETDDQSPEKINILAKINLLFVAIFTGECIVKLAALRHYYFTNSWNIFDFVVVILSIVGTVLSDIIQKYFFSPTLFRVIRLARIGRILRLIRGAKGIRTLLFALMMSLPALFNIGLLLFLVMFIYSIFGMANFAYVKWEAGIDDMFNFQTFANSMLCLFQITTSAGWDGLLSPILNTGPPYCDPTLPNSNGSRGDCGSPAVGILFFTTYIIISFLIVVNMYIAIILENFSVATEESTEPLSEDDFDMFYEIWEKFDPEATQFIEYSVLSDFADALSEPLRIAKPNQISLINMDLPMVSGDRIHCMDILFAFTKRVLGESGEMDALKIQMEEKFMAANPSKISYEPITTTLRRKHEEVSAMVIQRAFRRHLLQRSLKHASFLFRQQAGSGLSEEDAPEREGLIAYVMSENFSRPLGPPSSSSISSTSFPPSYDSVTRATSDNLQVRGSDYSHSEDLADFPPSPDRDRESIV

Row | SMILES | IC50 [1] [µM] | IC50 [2] [µM] | IC50 [3] [µM] | IC50 [4] [µM] | IC50 (Cytochrome P450 3A4) [µM] | IC50 (Epoxide hydrolase 1) [µM] | IC50 [5] [µM] | IC50 (Cytochrome P450 2C9) [µM] | IC50 (Cytochrome P450 2D6) [µM] | IC50 [6] [µM] | Activity (Blood) [%] | IC50 [7] [µM] | half-life [8] [h] | bioavailability [9] [%] | Vd [10] [L/kg] | clearance [11] [mL/min/kg]
1 | Cn1nccc1-c1ccc2c(c1)C(=O)CC1(CCN(C(=O)N[C@H]3C[C@@H]3c3ccccc3)CC1)O2 (racemic) | > 10 | < 0.001 | 28 | 0.004 | > 10 | 15 | 4 | > 10 | > 10 | 0.021 |  |  |  |  |  | 
2 | O=C(N[C@H]1C[C@@H]1c1ccccc1)N1CCC2(CC1)CC(O)c1ncccc1O2 (relative stereo) | > 10 | 0.008 |  | 0.008 | > 10 | > 100 | > 30 | > 10 | > 10 | 0.031 | 7.3 | > 30 |  |  |  | 
3 | O=C(N[C@H]1C[C@@H]1c1ccccc1)N1CCC2(CCc3cc(F)ccc3O2)CC1 (racemic) | > 10 | < 0.001 |  | 0.003 | > 10 | > 100 | 7 | < 10 | > 10 | 0.018 |  | 2 |  |  |  | 
4 | O=C(N[C@H]1C[C@@H]1c1ccccc1)N1CCC2(CCc3ccccc3O2)CC1 (racemic) | > 10 |  |  | 0.004 | > 10 | > 100 | 15 | < 10 | > 10 | 0.011 | 20 | 6 |  |  |  | 
5 | O=C1CC2(CCN(C(=O)N[C@H]3C[C@@H]3c3ccccc3)CC2)Oc2ccccc21 | > 10 | 0.003 |  | 0.003 | > 10 |  | 14 | 10 | > 10 | 0.009 |  | > 30 |  |  |  | 
6 | O=C1CC2(CCN(C(=O)NC3CCc4ccccc4C3)CC2)Oc2ccccc21 (racemic) | 1 |  |  | 0.005 | > 10 | 26 | 12 | > 10 | > 10 | 0.039 |  | 9 |  |  |  | 
7 | O=C1CC2(CCN(C(=O)N[C@H]3C[C@@H]3c3ccccc3)CC2)Oc2ccc(-c3ccncc3)cc21 (racemic) | > 10 |  |  | 0.001 | < 10 | > 100 | 0.2 | < 10 | < 10 | 0.007 |  | 4 |  |  |  | 
8 | CS(=O)(=O)c1ccc2c(c1)CCC1(CCCN(C(=O)N[C@H]3C[C@@H]3c3ccccc3)CC1)O2 (relative stereo) | > 10 | 0.003 | > 30 | 0.011 | > 10 | 55 | 2 | > 10 | > 10 | 0.049 |  |  |  |  |  | 
9 | CS(=O)(=O)c1ccc2c(c1)CCC1(CCN(C(=O)Cc3ccc(Cl)cc3Cl)CC1)O2 |  |  |  |  |  |  | 0.8 |  |  | 0.004 |  | > 30 | 2.6 | 67 | 0.15 | 0.7
10 | O=C1CC2(CCN(C(=O)NC3CCc4ccccc43)CC2)Oc2ccccc21 (racemic) | < 10 | 0.03 |  | 0.02 | > 10 | 28 | 6 | < 10 | > 10 | 0.035 |  | 6 |  |  |  | 
